From patent US20220153782A1, “COMPOUNDS, COMPOSITIONS AND METHODS FOR TREATING A NEUROLOGICAL CONDITION” (MEMORYPLUS LTD., priority 2019, published 2022)
Entries after “also recorded” stand apart in the source; their conditions may differ. Where a SMILES comes first, the peptide text is derived from it. [ ]: non-standard residue; d: D form. The star is where a group is joined. ξ: configuration not given here. Myristoyl = CCCCCCCCCCCCCC(=O)*; dThr(3ξ) = CC(O)[C@@H](N)C(=O)O; Lauroyl = CCCCCCCCCCCC(=O)*; ξIle = CC[C@H](C)C(N)C(=O)O

Experiments:
[1] = Brain stability (brain homogenate); format: in vitro ADME, mouse; settings: for brain stability (comparative): longer half-lives; for half-life: mouse, brain homogenate
From the text: (§1) N, 3 independent experiments.

APP/PS1 mice = assay: Contextual fear conditioning, APP/PS1 mice; format: in vivo, mouse
Method: Use of peptides in vivo with osmotic pumps. APP/PS1 (a mouse model of Alzheimer's disease) and WT mice were anesthetized with isofluorane, and i.c.v. delivery cannulas (brain alzet kit III) were implanted with a stereotaxic frame at the following coordinates according to the bregma: AP, −0.5 mm; ML, 1 mm; and DV, −2.2 mm. Osmotic minipumps (Alzet; model #1004) were filled with the peptides (Dodecanoyl-[…] (conjugate of peptide SEQ ID 2) or Dodecanoyl-[…] (conjugate of peptide SEQ ID 1), 10 μM peptide in 2 mM in cyclodextrin) or with vehicle (cyclodextrin), and equilibrated in 0.9% NaCl at 37° C. for 48 hr. They were attached to the i.c.v. cannula tubing and subcutaneously implanted at the back. After 21 days, behavioral testing was started. Animal manipulation and data analysis were carried out blind with respect to genotype and treatment.
Fear conditioning. In this test, mice form an association between a certain context (an experimental cage/tone) and an aversive event (a foot shock) that takes place in that context. […] Training and testing took place in a rodent observation cage (30×37×25 cm) that was placed in a sound attenuating chamber. In the training (conditioning), the mouse was exposed to the conditioning context (180 sec) followed by a tone (CS, 20 sec, 2 kHz, 85 dB). After termination of the tone, a foot shock (US, 0.75 mA, 2 sec) was delivered through a stainless-steel grid floor. Mice received three foot shocks with an intertrial interval of 60 s. The mouse was removed from the fear conditioning box 30 sec after shock termination and returned to their home cages. Testing: In the contextual fear conditioning version, mice were placed back into the original training context for 8 min, during which no foot shock was delivered. […] The animals' behavior was scored by an observer blind to the treatment conditions. Using a time-sampling procedure every 2 s, each mouse was scored blindly as either freezing or active at the instant the sample was taken. […]

Plasma stability (human) = format: in vitro ADME; settings: for k / half-life: human plasma, one phase decay; for half-life: human, plasma
From the text: as §1
(§2) Plasma stability. […] Based on the higher lipophilicity of myristoylated peptides, dodecanoyl peptides are expected to be less protein bound and a higher percentage of the peptide will be available for permeation across biological barriers such as the BBB (only free fraction is available for transport). Thus, Dodecanoyl-[…] is a likely candidate for further development.

Plasma stability (mouse) = format: in vitro ADME; settings: for half-life: mouse, plasma; for half-life / k: one phase decay
From the text: as §1, §2

[2] = Stability in simulated intestinal fluid; format: in vitro ADME; settings: one phase decay
From the text: as §1
Simulated intestinal fluids. The first hurdle that a peptide faces upon oral delivery is the high salt and acidic environment of the stomach that can denature the therapeutic peptide as well as the action of pepsin. Enteric coating can overcome this first hurdle easily with currently available industrial processes. Thus, we assessed the stability of the lipidized peptides in simulated intestinal fluids from non-fasted animals i.e. soluble fraction of digestive enzymes present in the upper gastrointestinal (and the major absorptive site for peptides). This soluble fraction contains pancreatic proteases such as trypsin and chymotrypsin, carboxypeptidases and aminopeptidases able to hydrolyse peptides down to di- or tripeptides. […] However, permeability across the BBB needs to be taken into consideration.

[3] = Liver stability (liver homogenate); format: in vitro ADME, mouse; settings: for half-life: mouse, liver homogenate
From the text: as §1
Liver stability (mouse). Clearance of peptide therapeutics is highly dependent on the high metabolism occurring by liver enzymes able to degrade within minutes the total dose of peptide reaching the bloodstream after intravenous, other parenteral and non-invasive (oral and nasal routes). Peptides with good plasma and liver stability are more likely to remain in circulation and thus elicit higher levels if peptide is brain permeable across the BBB via invasive and non-invasive routes.

[4] = system: in vitro 2D human BBB model (hCMEC/D3 and human astrocytes SC-1800); assay: in vitro
Method: (§3) The in vitro permeability across a human 2D blood-brain Transwell model (hCMEC/D3 and human astrocytes SC-1800) was tested and enabled the calculation of the apparent permeability coefficient (Papp) for all peptides.

in vitro = settings: human; for Papp at 200 μM: BBB permeability; for Papp: Papp0-4 h experiment 2
Method: as §3

[5] = Self-assembly (Thioflavin T, critical aggregate concentration) and TEM; format: physicochemical; settings: aqueous media, ThT
From the text: Peptides were able to aggregate in aqueous media and interact with Thioflavin T (ThT). ThT can be immobilized in fibrils/aggregates resulting in an increase in fluorescence. Dodecanoyl-[…] and Myristoyl-[…] result in lower critical aggregate concentrations (CAC) that is ˜5-fold lower from their equivalent lipidized peptides with a threonine. […] CAC is ˜20-fold smaller for myristoylated peptides compared to dodecanoyl peptides. […] This conserved structure can explain the increased stability and likely the success in solubilizing/stabilizing the peptide aggregates in hydroxyl-b-propyl cyclodextrin.

[6] = Physicochemical properties (water solubility)
[7] = system: in vitro 2D human BBB model (hCMEC/D3 and human astrocytes SC-1800); settings: brain permeable peptide, literature; cited from earlier work
[8] = brain, one phase decay, read-out: t1/2 (h)
[9] = brain, one phase decay, read-out: t1/2 (min)
[10] = liver, one phase decay, read-out: t1/2 (h)
[11] = liver, one phase decay, read-out: t1/2 (min)

Method for hCMEC/D3 cells: Cell metabolic activity was calculated in Human cerebral microvascular endothelial cells (hCMEC/D3) after exposure to the peptides at various concentrations for 4 or 24 hours (n=3, FIG. 7).
At the specified time points, the MTT solution (20 μL at 5 mg mL^−1 solution in PBS) were added to each well and cells were incubated for 4 hours at 37° C. Subsequently, DMSO (100 μL) was added to dissolve the formazan crystals and absorbance was measured at 570 and 690 nm using Multiskan Go microplate spectrophotometer and data were analysed using the SkanIt software (Thermo Scientific, Paisley, UK). Cell metabolic activity was calculated by subtracting the values at 690 nm from 570 nm to remove background, and dividing the values by the control to express as a percentage (%) of the control (0.5% DMSO):

Row | Compound | brain stability (comparative) ([1]; brain (mouse)) | k ([1]; brain, one phase decay) [h⁻¹] | half-life [1, 8] [h] | half-life [1, 9] [h] | k (Plasma stability (human)) [h⁻¹] | half-life (Plasma stability (human); read-out: t1/2 (h)) [h] | half-life (Plasma stability (human); read-out: t1/2 (min)) [h] | half-life (Plasma stability (mouse); read-out: t1/2 (h)) [h] | half-life (Plasma stability (mouse); read-out: t1/2 (min)) [h] | k (Plasma stability (mouse)) [h⁻¹] | k [2] [h⁻¹] | half-life ([2]; read-out: t1/2 (h)) [h] | half-life ([2]; read-out: t1/2 (min)) [h] | Cell viability (hCMEC/D3 cells) | k ([3]; liver, one phase decay) [h⁻¹] | half-life [3, 10] [h] | half-life [3, 11] [h] | BBB permeability [4] | Papp at 200 μM (in vitro) [×10⁻⁶ cm/s] | Papp (in vitro) [×10⁻⁶ cm/s] | further results
1 | CCCCCCCCCCCC(=O)N[C@@H](CCC(N)=O)C(=O)N[C@H](Cc1c[nH]cn1)C(=O)N[C@@H](CO)C(=O)N[C@H](CCC(N)=O)C(=O)NC(C(=O)N[C@@H](C(=O)N[C@@H](CCCCN)C(=O)N[C@@H](C(=O)O)C(C)C)C(C)O)[C@@H](C)CC (stereo partly shown) (Lauroyl-Q[dH]S[dQ][ξIle][dThr(3ξ)]K[dV]-OH) | more brain stable | 1.901 | 0.365 | 0.365 | 0.2102 | 3.3 | 3.3 | 0.151 | 0.151 | 4.595 | 0.2337 | 2.97 | 2.97 | +++++ | 1.146 | 0.605 | 0.605 | good | > 3.77 | 5.57 ± 0.289 | freezing behavior compared with the myristoyl peptide (APP/PS1 mice; FIG. 5): more than the myristoyl peptide; increase in freezing compared to myristoyl-QHSQITKV (APP/PS1 mice; fear conditioning test): 36%; contextual fear conditioning performance (freezing behavior) (APP/PS1 mice; i.c.v. infusion 3-4 weeks, vs vehicle, FIG. 4B): improved the performance; also recorded: enhance freezing behavior; human plasma stability (Plasma stability (human)): good; cell viability (hCMEC/D3 cells): good
2 | CCCCCCCCCCCCCC(=O)N[C@@H](CCC(N)=O)C(=O)N[C@@H](Cc1c[nH]cn1)C(=O)N[C@@H](CO)C(=O)N[C@@H](CCC(N)=O)C(=O)N[C@H](C(=O)N[C@H](C(=O)N[C@@H](CCCCN)C(=O)N[C@H](C(=O)O)C(C)C)[C@@H](C)O)[C@@H](C)CC (Myristoyl-QHSQITKV-OH; C-terminus assumed) | more brain stable | 2.714 | 0.255 | 0.255 | 0.3116 | 2.22 | 2.22 | 0.869 | 0.869 | 0.7972 | 0.1534 | 4.52 | 4.52 | + | 0.5092 | 1.36 | 1.36 | poor | < 3.77 | 2.63 ± 0.0786 | half-life ([1]; brain (mouse), read-out: half-life (converted)): 0.26 h; critical aggregate concentration (CAC), lower than equivalent lipidized peptide with a threonine [5]: ~5 fold; remaining at 2 h (Plasma stability (mouse); after 2 hours of incubation, read-out: peptide remaining): ~50%; stability in mouse plasma (comparative) (Plasma stability (mouse); longer half-lives): more plasma stable; water solubility (comparative with threonine analogue) [6]: higher water solubility; recovery of cells at 24 hours (hCMEC/D3 cells): did not recover; half-life ([3]; liver (mouse), read-out: half-life (converted)): 1.4 h
3 | CCCCCCCCCCCCCC(=O)N[C@@H](CCC(N)=O)C(=O)N[C@@H](Cc1c[nH]cn1)C(=O)N[C@H](C(=O)N[C@@H](CCC(N)=O)C(=O)N[C@H](C(=O)N[C@H](C(=O)N[C@@H](CCCCN)C(=O)N[C@H](C(=O)O)C(C)C)[C@@H](C)O)[C@@H](C)CC)[C@@H](C)O (Myristoyl-QHTQITKV-OH; C-terminus assumed) | – | 4.204 | 0.165 | 0.165 | 1.604 | 0.432 | 0.432 | 0.112 | 0.112 | 6.172 | 0.2490 | – | – | +++++ | 0.03747 | 18.5 | 18.5 | – | 2.63 to 5.57 | 3.77 ± 0.386 | physicochemical properties for successful development [6]: poor; k (fast) ([3]; liver, two phase decay, fast): 3.051 (fast), h^−1; k (slow) ([3]; liver, two phase decay, slow): 0.00046 h⁻¹; half-life ([3]; liver, two phase decay, fast, read-out: t1/2 (h) (fast) (converted)): 0.227 h; half-life ([3]; liver, two phase decay, fast, read-out: t1/2 (min) (fast)): 0.227 h; half-life ([3]; liver, two phase decay, slow, read-out: t1/2 (h) (slow) (converted)): 1510 h; half-life ([3]; liver, two phase decay, slow, read-out: t1/2 (min) (slow)): 1510 h
4 | Angiopep-2 | – | – | – | – | – | – | – | – | – | – | – | – | – | – | – | – | – | – | – | – | Papp, previous reported value [7]: 8.69±1.53 ×10^−6 cm/s
